Assay results reported in paper PMC5735069, “Targeting the NFAT1-MDM2-MDMX Network Inhibits the Proliferation and Invasion of Prostate Cancer Cells, Independent of p53 and Androgen” (Frontiers in Pharmacology, 2017).

What was measured:
MDM2 = biological target: T1, MDM2 (Homo sapiens, UniProt Q00987); test: biotin-InuA streptavidin pulldown with free InuA competition; time-dependent covalent binding kinetics by Western blot (biotin-InuA)
T1 construct: GST-MDM2 RING (RING domain)

MDMX = biological target: T2, MDMX (Homo sapiens, UniProt O15151); test: as above
T2 construct: gene MDM4; GST-MDMX RING (RING domain)
T2 sequence (O15151 428-490 limits assumed): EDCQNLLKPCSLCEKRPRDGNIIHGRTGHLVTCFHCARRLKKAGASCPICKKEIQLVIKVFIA

T1 sequence (Q00987 428-491 limits assumed): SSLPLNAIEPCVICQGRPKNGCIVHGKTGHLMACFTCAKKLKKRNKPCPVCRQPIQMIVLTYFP

KI (inactivation) (MDM2): 550 nM | KI (inactivation) (MDMX): 860 nM
Substance: Inulanolide A [InuA]
